Experimental data taken from patent publication US9511070B2, “Heterocyclyl carboxamides for treating viral diseases” (NOVADRUG, LLC, priority 2012, dated 2016).

Each molecule was assayed on JFH-1 HCV. Conditions: relative to mock-treated HCV infected control; doses in μM.
Excerpt: In vitro assay for anti-HCV efficacy. HCV studies typically involve infected patients and chimpanzees. However, recently, a robust HCV infection system was developed with cells derived from the Huh-7 human hepatoma cell line. It is based on the unique JFH-1 HCV consensus cDNA derived from an HCV patient. Using reverse genetics, the infectious virus can be rescued from this HCV clone. The recovered viable JFH virus can be passaged serially in Huh-7 cells. For this reason, this system is amenable for evaluating the activity of test compound for their anti-HCV efficacy.
Briefly, 6×10^3 Huh7-1 cells are incubated overnight in each well of collagen-coated BioCoat 96-well plates (BD Biosciences, Bedford, Mass.) in 0.2 ml 10% medium composed of Dulbecco's modified Eagle's medium supplemented with 10% fetal bovine serum. Subsequently, at 2 day intervals, the cultures are replenished with fresh 0.2 ml 10% medium. After the cultures become confluent, they continue to be replenished at 2 day intervals with fresh 0.2 ml 10% medium that also includes 1% dimethyl sulfoxide (DMSO). After 20 days of these replenishments, the Huh7-1 cultures are incubated with fresh 1% medium (same as 10% medium except that the serum level is 1%) containing HCV at a multiplicity of infection (MOI) of 0.05 focus forming units (ffu)/cell. The HCV (JFH-lwt Huh7) stock titer is 1.5×10^5 ffu/mL. The next day (day 1 post-infection) and 2 days later (day 3 post-infection) the media are replenished with fresh 1% medium containing the test compounds dissolved in DMSO. On the 5th day of treatment with the compounds, cell lysates are collected for RNA isolation and Real Time-quantitative Reverse Transcription Polymerase Chain Reaction (RT-qPCR) and culture media are collected for cytotoxicity analysis.
Total RNA is isolated from cells by the guanidine thiocyanate method using standard protocols. One μg RNA is used for cDNA synthesis using TaqMan reverse transcription reagents (Applied Biosystems, Foster City, Calif.) followed by real-time PCR using an Applied Biosystems 7300 real-time thermocycler. Thermal cycling consists of initial denaturation of 10 min at 95° C. followed by 40 cycles of denaturation (15 s at 95° C.) and annealing/extension (1 m at 60° C.). HCV and human glyceraldehyde-3-phosphate dehydrogenase (GAPDH) RNA levels are determined relative to a standard curve of serial dilutions of plasmid containing JFH-1 HCV or GAPDH cDNA. The PCR primers used to detect GAPDH and HCV are: GAPDH (NMX002046) 5′-[…]-3′(SEQ ID NO: 16) (sense) and 5′-[…]-3′(SEQ ID NO: 17) (anti-sense) JFH-1 HCV (AB047639) 5′-[…]-3′(SEQ ID NO: 18) (sense) and 5′-[…]-3′(SEQ ID NO: 19) (anti-sense).
In the case of COc1cccc(-c2ccccc2NC(=O)C2CCN(Cc3cc(C)c(O)c(C)c3)CC2)c1 [Example 24], the “intracellular HCV RNA levels (FIGS. 1A, 1B, 1C)” value (“intracellular HCV RNA levels” below) is reported as “dose dependent decrease in HCV RNA levels”.
With COc1cccc(-c2ccccc2NC(=O)C2CCN(Cc3cccc4cccnc34)CC2)c1 [Example 22] the “intracellular HCV RNA levels” value was “dose dependent decrease in HCV RNA levels”.
O=C(Nc1ccc(Oc2ccccc2F)cc1)C1CCN(Cc2cccc3c2OCO3)CC1 [Example 28] was tested, and the “intracellular HCV RNA levels” value was “dose dependent decrease in HCV RNA levels”.

Same assay, conditions: viral titer at 5 μM or 15 μM compared to untreated control
In the case of COc1cccc(CN2CCC(C(=O)Nc3cccc(-c4cccc(F)c4)c3)CC2)c1O [Example 91], the “HCV Antiviral Activity” value is reported as “++ (“++” corresponds to ≦60% viral titer at 5 μM)”.
For O=C(Nc1ccc(-c2nc3ccccc3[nH]2)cc1)C1CCN(CC2CC=CCC2)CC1 (stereo not shown) [Example 92], the “HCV Antiviral Activity” value was “+ (“+” corresponds to ≦60% viral titer at 15 μM)”.
C=CCn1cc(CN2CCC(C(=O)Nc3cccc(-c4cccc(Cl)c4)c3)CC2)c(C)n1 [Example 72] was tested, and the “HCV Antiviral Activity” value was “+ (“+” corresponds to ≦60% viral titer at 15 μM)”.
In the case of COc1cccc(-c2ccccc2NC(=O)C2CCN(Cc3cc(C)c(O)c(C)c3)CC2)c1 [Example 24], the “HCV Antiviral Activity” value is reported as “+++ (“+++” corresponds to ≦30% viral titer at 5 μM)”.
CCn1cc(CN2CCC(C(=O)Nc3ccc(Oc4ccccc4F)cc3)CC2)cn1 [Example 97] was tested, and the “HCV Antiviral Activity” value was “++ (“++” corresponds to ≦60% viral titer at 5 μM)”.
For COc1cccc(CN2CCC(C(=O)Nc3ccc(Oc4ccccc4F)cc3)CC2)c1O [Example 61], the “HCV Antiviral Activity” value was “++ (“++” corresponds to ≦60% viral titer at 5 μM)”.
For O=C(Nc1cccc(-c2ccco2)c1)C1CCN(Cc2cccc3cccnc23)CC1 [Example 40], the “HCV Antiviral Activity” value was “+ (“+” corresponds to ≦60% viral titer at 15 μM)”.
With COc1cccc(CN2CCC(C(=O)Nc3cccc(-c4cccc(F)c4)c3)CC2)c1OC [Example 84] the “HCV Antiviral Activity” value was “+ (“+” corresponds to ≦60% viral titer at 15 μM)”.
In the case of CCN1CCC(N2CCC(C(=O)Nc3ccc(Oc4ccccc4F)cc3)CC2)CC1 [Example 75], the “HCV Antiviral Activity” value is reported as “+++ (“+++” corresponds to ≦30% viral titer at 5 μM)”.
With COc1ccc(/C=C/CN2CCC(C(=O)Nc3cccc(-c4ccco4)c3)CC2)cc1 [Example 55] the “HCV Antiviral Activity” value was “− (“−” corresponds to >60% viral titer at 15 μM (highest concentration tested))”.
O=C(Nc1cccc(-c2cscn2)c1)C1CCN(C/C=C/c2ccc(F)cc2)CC1 [Example 52] was tested, and the “HCV Antiviral Activity” value was “− (“−” corresponds to >60% viral titer at 15 μM (highest concentration tested))”.
Cc1ccc(CN2CCC(C(=O)Nc3cccc(-c4cc5ccccc5[nH]4)c3)CC2)o1 [Example 45] was tested, and the “HCV Antiviral Activity” value was “− (“−” corresponds to >60% viral titer at 15 μM (highest concentration tested))”.
For O=C(Nc1ccc(-c2nc3ccccc3[nH]2)cc1)C1CCN(Cc2cc3ccccc3[nH]2)CC1 [Example 47], the “HCV Antiviral Activity” value was “− (“−” corresponds to >60% viral titer at 15 μM (highest concentration tested))”.
COc1cccc(CN2CCC(C(=O)Nc3ccccc3-c3cccc(OC)c3)CC2)c1 [Example 33] was tested, and the “HCV Antiviral Activity” value was “+ (“+” corresponds to ≦60% viral titer at 15 μM)”.
CCn1cc(CN2CCC(C(=O)Nc3cccc(-c4cccc(Cl)c4)c3)CC2)cn1 [Example 78] was tested, and the “HCV Antiviral Activity” value was “++ (“++” corresponds to ≦60% viral titer at 5 μM)”.
COc1cccc(O)c1CN1CCC(C(=O)Nc2cccc(-c3cccc(F)c3)c2)CC1 [Example 30] was tested, and the “HCV Antiviral Activity” value was “+ (“+” corresponds to ≦60% viral titer at 15 μM)”.
With COc1cccc(-c2ccccc2NC(=O)C2CCN(Cc3cccc4cccnc34)CC2)c1 [Example 22] the “HCV Antiviral Activity” value was “+++ (“+++” corresponds to ≦30% viral titer at 5 μM)”.
CSCCCN1CCC(C(=O)Nc2cccc(-c3cc4ccccc4[nH]3)c2)CC1 [Example 46] was tested, and the “HCV Antiviral Activity” value was “− (“−” corresponds to >60% viral titer at 15 μM (highest concentration tested))”.
In the case of COc1cccc(-c2ccccc2NC(=O)C2CCN(Cc3nc(C)c(C)nc3C)CC2)c1 [Example 87], the “HCV Antiviral Activity” value is reported as “++ (“++” corresponds to ≦60% viral titer at 5 μM)”.
With CC(C)n1cc(CN2CCC(C(=O)Nc3cccc(-c4cccc(Cl)c4)c3)CC2)cn1 [Example 82] the “HCV Antiviral Activity” value was “+ (“+” corresponds to ≦60% viral titer at 15 μM)”.
With COc1cccc(CN2CCC(C(=O)Nc3ccc(Oc4ccccc4F)cc3)CC2)c1 [Example 70] the “HCV Antiviral Activity” value was “+ (“+” corresponds to ≦60% viral titer at 15 μM)”.
With O=C(Nc1cccc(-c2cccc(F)c2)c1)C1CCN(Cc2cccc3c2OCO3)CC1 [Example 56] the “HCV Antiviral Activity” value was “− (“−” corresponds to >60% viral titer at 15 μM (highest concentration tested))”.
In the case of COc1cccc(-c2ccccc2NC(=O)C2CCN(Cc3cccc4ccccc34)CC2)c1 [Example 71], the “HCV Antiviral Activity” value is reported as “+ (“+” corresponds to ≦60% viral titer at 15 μM)”.
O=C(Nc1cccc(-c2ccco2)c1)C1CCN(C(=O)CCc2ccco2)CC1 [Example 53] was tested, and the “HCV Antiviral Activity” value was “− (“−” corresponds to >60% viral titer at 15 μM (highest concentration tested))”.
For COc1ccccc1CN1CCC(C(=O)Nc2ccc(-c3nc4ccccc4[nH]3)cc2)CC1 [Example 23], the “HCV Antiviral Activity” value was “+++ (“+++” corresponds to ≦30% viral titer at 5 μM)”.
With COc1cccc(-c2ccccc2NC(=O)C2CCN(Cc3ccccc3OC)CC2)c1 [Example 25] the “HCV Antiviral Activity” value was “++ (“++” corresponds to ≦60% viral titer at 5 μM)”.
In the case of Cc1nc(C)c(CN2CCC(C(=O)Nc3cccc(-c4cccc(F)c4)c3)CC2)nc1C [Example 79], the “HCV Antiviral Activity” value is reported as “++ (“++” corresponds to ≦60% viral titer at 5 μM)”.
For O=C(Nc1cccc(-c2cccc(F)c2)c1)C1CCN(Cc2ccc3nsnc3c2)CC1 [Example 90], the “HCV Antiviral Activity” value was “+ (“+” corresponds to ≦60% viral titer at 15 μM)”.
For COc1cc(CN2CCC(C(=O)Nc3ccc(Oc4ccccc4F)cc3)CC2)ccc1O [Example 85], the “HCV Antiviral Activity” value was “++ (“++” corresponds to ≦60% viral titer at 5 μM)”.
With COc1cccc(-c2ccccc2NC(=O)C2CCN(Cc3cc(C)ccc3C)CC2)c1 [Example 88] the “HCV Antiviral Activity” value was “+ (“+” corresponds to ≦60% viral titer at 15 μM)”.
In the case of O=C(Nc1ccc(Oc2ccccc2)nc1)C1CCN(Cc2ccc(Cl)s2)CC1 [Example 83], the “HCV Antiviral Activity” value is reported as “++ (“++” corresponds to ≦60% viral titer at 5 μM)”.
In the case of O=C(Nc1ccc(Oc2ccccc2)nc1)C1CCN(Cc2ccccc2)CC1 [Example 77], the “HCV Antiviral Activity” value is reported as “++ (“++” corresponds to ≦60% viral titer at 5 μM)”.
For O=C(Nc1cccc(-c2ccco2)c1)C1CCN(Cc2nc3ccc(F)cc3[nH]2)CC1 [Example 49], the “HCV Antiviral Activity” value was “− (“−” corresponds to >60% viral titer at 15 μM (highest concentration tested))”.
For CC(C)Cc1cc(CN2CCC(C(=O)Nc3ccc(Oc4ccccc4F)cc3)CC2)n[nH]1 [Example 86], the “HCV Antiviral Activity” value was “+ (“+” corresponds to ≦60% viral titer at 15 μM)”.
O=C(Nc1ccc(-c2nc3ccccc3[nH]2)cc1)C1CCN(Cc2cccc(F)c2)CC1 [Example 96] was tested, and the “HCV Antiviral Activity” value was “+ (“+” corresponds to ≦60% viral titer at 15 μM)”.
With O=C(Nc1cccc(-c2cccc(F)c2)c1)C1CCN(Cc2ccc(O)cc2)CC1 [Example 26] the “HCV Antiviral Activity” value was “++ (“++” corresponds to ≦60% viral titer at 5 μM)”.
With COc1cccc(-c2cccc(NC(=O)C3CCN(CC=C(C)C)CC3)c2)c1 [Example 69] the “HCV Antiviral Activity” value was “++ (“++” corresponds to ≦60% viral titer at 5 μM)”.
O=C(Nc1cccc(-c2cccc(Cl)c2)c1)C1CCN(Cc2cccc(O)c2)CC1 [Example 50] was tested, and the “HCV Antiviral Activity” value was “− (“−” corresponds to >60% viral titer at 15 μM (highest concentration tested))”.
For CCn1ncc(CN2CCC(C(=O)Nc3cccc(-c4cccc(F)c4)c3)CC2)c1C [Example 95], the “HCV Antiviral Activity” value was “++ (“++” corresponds to ≦60% viral titer at 5 μM)”.
For CCCn1ncc(CN2CCC(C(=O)Nc3ccccc3-c3cccc(OC)c3)CC2)c1C [Example 80], the “HCV Antiviral Activity” value was “+ (“+” corresponds to ≦60% viral titer at 15 μM)”.
With COc1cccc(-c2ccccc2NC(=O)C2CCN(Cc3ccc(F)cc3OC)CC2)c1 [Example 34] the “HCV Antiviral Activity” value was “+ (“+” corresponds to ≦60% viral titer at 15 μM)”.
O=C(Nc1ccc(Oc2ccccc2F)cc1)C1CCN(Cc2cccc3c2OCO3)CC1 [Example 28] was tested, and the “HCV Antiviral Activity” value was “++ (“++” corresponds to ≦60% viral titer at 5 μM)”.
With Cc1nn(C(C)C)c(C)c1CN1CCC(C(=O)Nc2cccc(-c3cccc(F)c3)c2)CC1 [Example 76] the “HCV Antiviral Activity” value was “++ (“++” corresponds to ≦60% viral titer at 5 μM)”.
